Experimental data taken from US6358885B1, “Substituted phenylheterocyclic herbicides” (Mississippi State University, priority 1992, dated 2002).

What was measured:
wild buckwheat = test: Test B preemergence/postemergence greenhouse plant response rating 0 to 10; format: in vivo, Polygonum convolvulus; conditions: 0 to 10 scale
Method in brief: (§1)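 Both application timings were run together: seeds got compound preemergence, and established seedlings (two to eighteen cm) got it postemergence. Non-phytotoxic solvent carried the chemical. Ratings are visual, versus controls, at twelve to sixteen days.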

soybean [1] = test: Test C preemergence/postemergence greenhouse plant response rating 0 to 100; format: in vivo, Glycine max
Method in brief: (§2)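 Compounds in non-phytotoxic solvent applied preemergence to sandy loam one day after planting, postemergence at the 1–4 leaf stage, or to ~2.5 cm floodwater over silt loam.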

cheatgrass = test: Test B preemergence/postemergence greenhouse plant response rating 0 to 10; format: in vivo, Bromus secalinus; conditions: 0 to 10 scale
Method in brief: as §1

velvetleaf [2] = test: Test C preemergence/postemergence greenhouse plant response rating 0 to 100; format: in vivo, Abutilon theophrasti
Method in brief: as §2

sugar beet = test: as above; format: in vivo, Beta vulgaris
Method in brief: as §2

lambsquarters [3] = test: as above; format: in vivo, Chenopodium album; conditions: for Plant response rating Lambsquarters: 62 g/ha, 0 to 100 scale
Method in brief: as §2

barley = test: as above; format: in vivo, Hordeum vulgare; conditions: for Plant response rating Barley Igri: 62 g/ha, 0 to 100 scale
Method in brief: as §2

rice = test: Test B preemergence/postemergence greenhouse plant response rating 0 to 10; format: in vivo, Oryza sativa; conditions: 0 to 10 scale
Method in brief: as §1

cotton = test: as above; format: in vivo, Gossypium hirsutum; conditions: 0 to 10 scale
Method in brief: as §1

umbrella sedge = test: Test C flood test plant response rating 0 to 100; format: in vivo, Cyperus difformis
Method in brief: as §2

corn = test: Test C preemergence/postemergence greenhouse plant response rating 0 to 100; format: in vivo, Zea mays; conditions: for Plant response rating, Corn: 62 g/ha, 0 to 100 scale
Method in brief: as §2

morningglory = test: as above; format: in vivo, Ipomoea hederacea; conditions: for Plant response rating, Morningglory: 62 g/ha, 0 to 100 scale
Method in brief: as §2

soybean [4] = test: Test B preemergence/postemergence greenhouse plant response rating 0 to 10; format: in vivo, Glycine max; conditions: 0 to 10 scale
Method in brief: as §1

velvetleaf [5] = test: as above; format: in vivo, Abutilon theophrasti; conditions: 0 to 10 scale
Method in brief: as §1

lambsquarters [6] = test: as above; format: in vivo, Chenopodium album; conditions: 0 to 10 scale
Method in brief: as §1

sorghum = test: Test C preemergence/postemergence greenhouse plant response rating 0 to 100; format: in vivo, Sorghum bicolor
Method in brief: as §2

purple nutsedge = test: Test B preemergence/postemergence greenhouse plant response rating 0 to 10; format: in vivo, Cyperus rotundus; conditions: 0 to 10 scale
Method in brief: as §1

rape = test: Test C preemergence/postemergence greenhouse plant response rating 0 to 100; format: in vivo, Brassica napus; conditions: for Plant response rating, Rape: 62 g/ha, 0 to 100 scale
Method in brief: as §2

[7] = POSTEMERGENCE, 62 g/ha, 0 to 100 scale

SMILES: CCN1C(=O)COc2cc(F)c(-c3nn4c(c3Cl)CCCC4)cc21 [Compound 54]
- Plant response rating, Wild buckwheat (wild buckwheat; POSTEMERGENCE, Rate 10 g/ha): 10
- Plant response rating, Wild buckwheat (wild buckwheat; POSTEMERGENCE, Rate 50 g/ha): 10
- Plant response rating, Wild buckwheat (wild buckwheat; PREEMERGENCE, Rate 50 g/ha): 10
- Plant response rating, Soybean (soybean [1]; [7]): 95
- Plant response rating (0 to 100), Soybean (soybean [1]; POSTEMERGENCE, Rate 1 g/ha): 50
- Plant response rating (0 to 100), Soybean (soybean [1]; POSTEMERGENCE, Rate 4 g/ha): 65
- Plant response rating (0 to 100), Soybean (soybean [1]; PREEMERGENCE, Rate 1 g/ha): 0
- Plant response rating (0 to 100), Soybean (soybean [1]; PREEMERGENCE, Rate 4 g/ha): 0
- Plant response rating (0 to 100), Soybean (soybean [1]; Rate 16 g/ha, POSTEMERGENCE): 85
- Plant response rating (0 to 100), Soybean (soybean [1]; Rate 16 g/ha, PREEMERGENCE): 0
- Plant response rating, Cheatgrass (cheatgrass; POSTEMERGENCE, Rate 10 g/ha): 5
- Plant response rating, Cheatgrass (cheatgrass; POSTEMERGENCE, Rate 50 g/ha): 7
- Plant response rating, Cheatgrass (cheatgrass; PREEMERGENCE, Rate 10 g/ha): 1
- Plant response rating, Cheatgrass (cheatgrass; PREEMERGENCE, Rate 50 g/ha): 3
- Plant response rating, Velvetleaf (velvetleaf [2]; [7]): 100
- Plant response rating (0 to 100), Velvetleaf (velvetleaf [2]; POSTEMERGENCE, Rate 1 g/ha): 70
- Plant response rating (0 to 100), Velvetleaf (velvetleaf [2]; POSTEMERGENCE, Rate 4 g/ha): 100
- Plant response rating (0 to 100), Velvetleaf (velvetleaf [2]; PREEMERGENCE, Rate 1 g/ha): 0
- Plant response rating (0 to 100), Velvetleaf (velvetleaf [2]; PREEMERGENCE, Rate 4 g/ha): 0
- Plant response rating (0 to 100), Velvetleaf (velvetleaf [2]; Rate 16 g/ha, POSTEMERGENCE): 100
- Plant response rating (0 to 100), Velvetleaf (velvetleaf [2]; Rate 16 g/ha, PREEMERGENCE): 80
- Plant response rating, Sugar beet (sugar beet; [7]): 100
- Plant response rating (0 to 100), Sugar beet (sugar beet; POSTEMERGENCE, Rate 1 g/ha): 100
- Plant response rating (0 to 100), Sugar beet (sugar beet; POSTEMERGENCE, Rate 4 g/ha): 100
- Plant response rating (0 to 100), Sugar beet (sugar beet; PREEMERGENCE, Rate 1 g/ha): 0
- Plant response rating (0 to 100), Sugar beet (sugar beet; PREEMERGENCE, Rate 4 g/ha): 10
- Plant response rating (0 to 100), Sugar beet (sugar beet; Rate 16 g/ha, POSTEMERGENCE): 100
- Plant response rating (0 to 100), Sugar beet (sugar beet; Rate 16 g/ha, PREEMERGENCE): 100
- Plant response rating Lambsquarters (lambsquarters [3]; POSTEMERGENCE): 100
- Plant response rating (0 to 100), Lambsquarters (lambsquarters [3]; POSTEMERGENCE, Rate 1 g/ha): 10
- Plant response rating (0 to 100), Lambsquarters (lambsquarters [3]; POSTEMERGENCE, Rate 4 g/ha): 50
- Plant response rating Lambsquarters (lambsquarters [3]; PREEMERGENCE): 100
- Plant response rating (0 to 100), Lambsquarters (lambsquarters [3]; PREEMERGENCE, Rate 1 g/ha): 0
- Plant response rating (0 to 100), Lambsquarters (lambsquarters [3]; PREEMERGENCE, Rate 4 g/ha): 60
- Plant response rating (0 to 100), Lambsquarters (lambsquarters [3]; Rate 16 g/ha, POSTEMERGENCE): 75
- Plant response rating (0 to 100), Lambsquarters (lambsquarters [3]; Rate 16 g/ha, PREEMERGENCE): 100
- Plant response rating Barley Igri (barley; POSTEMERGENCE): 50
- Plant response rating (0 to 100), Barley Igri (barley; POSTEMERGENCE, Rate 1 g/ha): 30
- Plant response rating (0 to 100), Barley Igri (barley; POSTEMERGENCE, Rate 4 g/ha): 40
- Plant response rating Barley Igri (barley; PREEMERGENCE): 10
- Plant response rating (0 to 100), Barley Igri (barley; PREEMERGENCE, Rate 1 g/ha): 0
- Plant response rating (0 to 100), Barley Igri (barley; PREEMERGENCE, Rate 4 g/ha): 0
- Plant response rating (0 to 100), Barley Igri (barley; Rate 16 g/ha, POSTEMERGENCE): 50
- Plant response rating (0 to 100), Barley Igri (barley; Rate 16 g/ha, PREEMERGENCE): 0
- Plant response rating, Rice (rice; POSTEMERGENCE, Rate 10 g/ha): 3
- Plant response rating, Rice (rice; POSTEMERGENCE, Rate 50 g/ha): 4
- Plant response rating, Rice (rice; PREEMERGENCE, Rate 50 g/ha): 0
- Plant response rating, Cotton (cotton; POSTEMERGENCE, Rate 10 g/ha): 10
- Plant response rating, Cotton (cotton; POSTEMERGENCE, Rate 50 g/ha): 10
- Plant response rating, Cotton (cotton; PREEMERGENCE, Rate 10 g/ha): 1
- Plant response rating, Cotton (cotton; PREEMERGENCE, Rate 50 g/ha): 2
- Plant response rating (0 to 100), Umbrella sedge (umbrella sedge; POSTEMERGENCE section, flood test, Rate 1 g/ha): 0
- Plant response rating (0 to 100), Umbrella sedge (umbrella sedge; POSTEMERGENCE section, flood test, Rate 4 g/ha): 0
- Plant response rating (0 to 100), Umbrella sedge (umbrella sedge; Rate 16 g/ha, under POSTEMERGENCE head (flood test species)): 10
- Plant response rating Umbrella sedge (umbrella sedge; flood test species listed under POSTEMERGENCE, 62 g/ha, 0 to 100 scale): 70
- Plant response rating, Corn (corn; POSTEMERGENCE): 50
- Plant response rating (0 to 100), Corn (corn; POSTEMERGENCE, Rate 1 g/ha): 30
- Plant response rating (0 to 100), Corn (corn; POSTEMERGENCE, Rate 4 g/ha): 30
- Plant response rating, Corn (corn; PREEMERGENCE): 40
- Plant response rating (0 to 100), Corn (corn; PREEMERGENCE, Rate 1 g/ha): 0
- Plant response rating (0 to 100), Corn (corn; PREEMERGENCE, Rate 4 g/ha): 0
- Plant response rating (0 to 100), Corn (corn; Rate 16 g/ha, POSTEMERGENCE): 40
- Plant response rating (0 to 100), Corn (corn; Rate 16 g/ha, PREEMERGENCE): 0
- Plant response rating, Morningglory (morningglory; POSTEMERGENCE): 100
- Plant response rating (0 to 100), Morningglory (morningglory; POSTEMERGENCE, Rate 1 g/ha): 60
- Plant response rating (0 to 100), Morningglory (morningglory; POSTEMERGENCE, Rate 4 g/ha): 100
- Plant response rating, Morningglory (morningglory; PREEMERGENCE): 20
- Plant response rating (0 to 100), Morningglory (morningglory; PREEMERGENCE, Rate 1 g/ha): 0
- Plant response rating (0 to 100), Morningglory (morningglory; PREEMERGENCE, Rate 4 g/ha): 0
- Plant response rating (0 to 100), Morningglory (morningglory; Rate 16 g/ha, POSTEMERGENCE): 100
- Plant response rating (0 to 100), Morningglory (morningglory; Rate 16 g/ha, PREEMERGENCE): 0
- Plant response rating, Soybean (soybean [4]; POSTEMERGENCE, Rate 10 g/ha): 8
- Plant response rating, Soybean (soybean [4]; POSTEMERGENCE, Rate 50 g/ha): 9
- Plant response rating, Soybean (soybean [4]; PREEMERGENCE, Rate 50 g/ha): 0
- Plant response rating, Velvetleaf (velvetleaf [5]; POSTEMERGENCE, Rate 10 g/ha): 8
- Plant response rating, Velvetleaf (velvetleaf [5]; POSTEMERGENCE, Rate 50 g/ha): 9
- Plant response rating, Velvetleaf (velvetleaf [5]; PREEMERGENCE, Rate 50 g/ha): 10
- Plant response rating, Lambsquarter (lambsquarters [6]; POSTEMERGENCE, Rate 10 g/ha): 10
- Plant response rating, Lambsquarter (lambsquarters [6]; POSTEMERGENCE, Rate 50 g/ha): 10
- Plant response rating, Lambsquarter (lambsquarters [6]; PREEMERGENCE, Rate 50 g/ha): 10
- Plant response rating, Sorghum (sorghum; [7]): 60
- Plant response rating (0 to 100), Sorghum (sorghum; POSTEMERGENCE, Rate 1 g/ha): 20
- Plant response rating (0 to 100), Sorghum (sorghum; POSTEMERGENCE, Rate 4 g/ha): 40
- Plant response rating (0 to 100), Sorghum (sorghum; PREEMERGENCE, Rate 1 g/ha): 0
- Plant response rating (0 to 100), Sorghum (sorghum; PREEMERGENCE, Rate 4 g/ha): 0
- Plant response rating (0 to 100), Sorghum (sorghum; Rate 16 g/ha, POSTEMERGENCE): 50
- Plant response rating (0 to 100), Sorghum (sorghum; Rate 16 g/ha, PREEMERGENCE): 0
- Plant response rating, Nutsedge (purple nutsedge; POSTEMERGENCE, Rate 10 g/ha): 2
- Plant response rating, Nutsedge (purple nutsedge; POSTEMERGENCE, Rate 50 g/ha): 2
- Plant response rating, Nutsedge (purple nutsedge; PREEMERGENCE, Rate 50 g/ha): 0
- Plant response rating, Rape (rape; POSTEMERGENCE): 100
- Plant response rating (0 to 100), Rape (rape; POSTEMERGENCE, Rate 1 g/ha): 50
- Plant response rating (0 to 100), Rape (rape; POSTEMERGENCE, Rate 4 g/ha): 50
- Plant response rating, Rape (rape; PREEMERGENCE): 10
- Plant response rating (0 to 100), Rape (rape; PREEMERGENCE, Rate 1 g/ha): 0
- Plant response rating (0 to 100), Rape (rape; PREEMERGENCE, Rate 4 g/ha): 0
- Plant response rating (0 to 100), Rape (rape; Rate 16 g/ha, POSTEMERGENCE): 100
- Plant response rating (0 to 100), Rape (rape; Rate 16 g/ha, PREEMERGENCE): 0
